Data reported in patent US20240147995A1, “INSECT NEUROPEPTIDES 5” (Solasta Bio Limited, priority 2022, published 2024).

Tests used:
Plutella xylostella = experiment: Leaf dip assay testing against Plutella xylostella (mortality); format: in vivo; details: unformulated SB-P-70; FIG. 6, after 96 hours; compared to negative control vehicle and Chlorantraniliprole
Protocol: The assay was carried out based on IRAC susceptibility test method 019 (https://irac-online.org/methods/aphids-adultnymphs/). Fill a small 4 cm wide 3 cm high dish with a 1% agar treatment solution of the active chemical or control (ensuring 1 cm gap between the agar and the lid) and leave to set. Dip a 2.5 cm leaf disc into 3 ml of treatment solution allowing the treatment to coat the leaf. Leave the disc to dry for 1 hour and place onto the set agar. Place insects (Plutella xylostella) onto each of the leaf discs. Each unit is sealed with a close-fitting, ventilated lid. Place the agar dishes in a small plastic tray lined with moist tissue paper and ensure the water trays in the bottom of the incubator are filled with clean water and place within the incubator. An assessment of mortality is made at 72, 96 and 120 hours. Leaf dip assays were performed with SB-P-70, and compared to a negative control vehicle and a current commercial insecticide Chlorantraniliprole. The activity of SB-P-70 is shown in FIG. 6; SB-P-70 has good activity whilst being eco-friendly and targeted to specific pests unlike broad spectrum chemical insecticides such as Chlorantraniliprole.

Spodoptera frugiperda = experiment: Lepidoptera artificial diet assay against Spodoptera frugiperda (pupation and mortality); format: in vivo; details: unformulated SB-P-70; 1×10^−4 M in diet; L1 larvae; FIG. 8, after 168 hours; compared to negative control vehicle and DDT
Excerpt: Frontier Lepidoptera artificial diet was made up by preparing agar at 1% and then mixing it with artificial diet powder. Peptide solution was aliquoted in 10 cells and diet poured straight onto it. The final concentration of the peptide was 1×10^−4 M, and each peptide was aliquoted in 10 cells. Once the diet solidified and cooled down, one L1 larvae was infested in each cell. The trays were sealed with heat and let larva were allowed to develop for 168 hrs. Finally, pupation and mortality were scored for. Lepidoptera artificial diet assays were performed with SB-P-70, and compared to a negative control vehicle and the insecticide dichlorodiphenyltrichloroethane (DDT).

[Hy]-KVKFSAWG-[NH2] (H-KVKFSAWG-NH2) [SB-P-70]
activity against Plutella xylostella (mortality, leaf dip assay) (Plutella xylostella): good activity | activity against Spodoptera frugiperda (pupation and mortality, artificial diet assay) (Spodoptera frugiperda): much higher activity
